Laboratory results from patent publication US8338638B2, “Antimicrobial derivatives of anacardic acid and process for preparing the same” (Unichem Laboratories Ltd., priority 2006, dated 2012).
Converted amounts (≈) assume the structure as drawn. Where two headings read alike, the source gives them in different places.

Columns and labels:
[1] = tested on: MRSA; test: Broth assay, antibacterial activity (MIC/MBC) against MRSA; assay type: cell-based, Methicillin resistant Stapphalococcus aureus; conditions: Staphylococcus aureus; for MIC: 24 h
Procedure: (§1) The invention specifically relates to the process for the preparation of antimicrobial derivatives of saturated anacardic acid (C15:0). The mixture of anacardic acids chromatographically purified from CNSL was hydrogenated using Pd—C to get the saturated anacardic acid (C15:0). Said derivatives were prepared by adopting the techniques used in synthetic chemistry for nitration, halogenation and acetylation of various organic compounds. The synthesized derivatives were assayed for anti bacterial activity against Stapphalococcus aureus and Methicillin resistant Stapphalococcus aureus and Enterococcus fecalis by the broth assay used for antibiotic susceptibility tests and the minimum inhibitory concentration (MIC) and minimum bactericidal concentration (MBC) determined.
(§2) Procedure for Antimicrobial Testing:
(§3) The bacterial colonies from Luria-Bertani (LB) agar plates were inoculated into sterile LB broth and incubated in an incubator shaker for 12 h. This culture was diluted such that the innoculum when added to the test broth would correspond to 10^5 colony forming units (CFU). The broth assays were done in sterile culture tubes containing 5 mL of LB medium. The test compounds dissolved in ethanol and controls were added to these tubes and then the innoculum was added and the tubes incubated at 37° C. for 24 h. After 24 h incubation the OD600 was recorded and then plated on LB agar plates and incubated fore 24 h at 37° C. The colonies were counted and the minimum inhibitory concentration (MIC) and minimum bactericidal concentration (MBC) calculated. The MIC is determined by the minimum concentration of the sample at which no growth was observed as determined by measuring the OD600. The MBC is determined by the concentration at which there is a reduction in the cfu in the broth assay from 10^5 to 10^3 counted after plating on LB agar plates.

[2] = tested on: Sa (NCTC8325); test: Broth assay, antibacterial activity (MIC/MBC) against Sa (NCTC8325); assay type: cell-based, Stapphalococcus aureus; conditions: for MIC: 24 h
Procedure: as §1, §2, §3

[3] = tested on: E. fecalis; test: Broth assay, antibacterial activity (MIC/MBC) against E. fecalis; assay type: cell-based; conditions: Enterococcus; for MIC: 24 h
Procedure: as §1, §2, §3

[4] = tested on: MRSA; conditions: against MRSA; Kube et al; cited from earlier work
[5] = LB broth, 37° C., no growth by OD600, read-out: MIC
[6] = reduction in cfu from 10^5 to 10^3 after plating on LB agar, read-out: MBC
[7] = Sa (NCTC8325), LB broth, 37° C., no growth by OD600, read-out: MIC
[8] = Sa (NCTC8325), reduction in cfu from 10^5 to 10^3 after plating on LB agar, read-out: MBC
[9] = E. fecalis, LB broth, 37° C., no growth by OD600, read-out: MIC
[10] = E. fecalis, reduction in cfu from 10^5 to 10^3 after plating on LB agar, read-out: MBC

SMILES | MIC [1, 5] | MBC [1, 6] | MIC [2, 7] | MBC [2, 8] | MIC [3, 9] | MBC [3, 10] | MBC [1] | MIC [1] | MBC [2] | MIC [2] | MBC [3] | MIC [3] | minimum inhibitory concentration (MIC) [4]
C=C[C@@](C)(/C=C/c1ccc(OC(=O)c2c(CCCCCCCCCCCCCCC)cccc2OC)cc1)CCC=C(C)C [MAA-Ba] | > 20 µg/mL | > 20 µg/mL | > 10 µg/mL | > 10 µg/mL | 6 µg/mL (≈ 9.98 µM) | > 10 µg/mL |  |  |  |  |  |  | 
CCCCCCCCCCCCCCCc1cccc(OC)c1C(=O)NC1C(=O)N2C1SC(C)(C)C2C(=O)O (centres unmarked) [MAA-APA] | 10 to 20 µg/mL (≈ 17.8 to 35.7 µM) | > 20 µg/mL | > 10 µg/mL | > 10 µg/mL | 6 µg/mL (≈ 10.7 µM) | > 10 µg/mL |  |  |  |  |  |  | 
CCCCCCCCCCCCCCCc1cccc(OC)c1C(=O)O [MAA, 2-Methoxy-6-Pentadecyl-benzoic acid] | 1 µg/mL (≈ 2.76 µM) | 4 µg/mL (≈ 11 µM) | 1 µg/mL (≈ 2.76 µM) | 8 µg/mL (≈ 22.1 µM) | 1 µg/mL (≈ 2.76 µM) | 6 µg/mL (≈ 16.5 µM) |  |  |  |  |  |  | 
CCCCCCCCCCCCCCCc1cc([N+](=O)[O-])c([N+](=O)[O-])c(OC(C)=O)c1C(=O)O [ANAA, 3,4-Dinitro-6-pentadecyl-2-acetyloxybenzoic acid] | 2 µg/mL (≈ 4.16 µM) | > 10 µg/mL | 1 µg/mL (≈ 2.08 µM) | > 10 µg/mL | 0.5 µg/mL (≈ 1.04 µM) | 7 µg/mL (≈ 14.6 µM) |  |  |  |  |  |  | 
CCCCCCCCCCCCCCCc1c([N+](=O)[O-])cc([N+](=O)[O-])c(OC(C)=O)c1C(=O)O [ADAA, 3,5-Dinitro-6-pentadecyl-2-acetyloxybenzoic acid] | 4 µg/mL (≈ 8.32 µM) | 10 µg/mL (≈ 20.8 µM) | 2 µg/mL (≈ 4.16 µM) | 6 µg/mL (≈ 12.5 µM) | 6 µg/mL (≈ 12.5 µM) | 6 µg/mL (≈ 12.5 µM) |  |  |  |  |  |  | 
CCCCCCCCCCCCCCCc1c(Br)ccc(OC(C)=O)c1C(=O)O [ADBAA, 5-Bromo-6-pentadecyl-2-acetyloxybenzoic acid] | 9 to 10 µg/mL (≈ 19.2 to 21.3 µM) | > 10 µg/mL | > 10 µg/mL | > 10 µg/mL | 1 µg/mL (≈ 2.13 µM) | 3 µg/mL (≈ 6.39 µM) |  |  |  |  |  |  | 
CCCCCCCCCCCCCCCc1cccc(OC)c1C(=O)NC(Cc1ccc(O)cc1)C(=O)O (centres unmarked) [MAAY] | 2 µg/mL (≈ 3.8 µM) | 10 µg/mL (≈ 19 µM) | 3 to 5 µg/mL (≈ 5.71 to 9.51 µM) | > 10 µg/mL | 6 µg/mL (≈ 11.4 µM) | > 10 µg/mL |  |  |  |  |  |  | 
CCCCCCCCCCCCCCCc1cccc(OC(C)=O)c1C(=O)O [AAA, 6-Pentadecyl-2-acetyloxybenzoic acid] | 2 µg/mL (≈ 5.12 µM) | 6 µg/mL (≈ 15.4 µM) | 6 µg/mL (≈ 15.4 µM) | 7 to 8 µg/mL (≈ 17.9 to 20.5 µM) | 1 µg/mL (≈ 2.56 µM) | 6 µg/mL (≈ 15.4 µM) |  |  |  |  |  |  | 
CCCCCCCCCCCCCCCc1c([N+](=O)[O-])cc([N+](=O)[O-])c(O)c1C(=O)O [DAA, 3,5-Dinitro-6-pentadecyl-2-hydroxybenzoic acid] |  |  |  |  |  |  | 6 µg/mL (≈ 13.7 µM) | 3 µg/mL (≈ 6.84 µM) | 3 to 5 µg/mL (≈ 6.84 to 11.4 µM) | 2 µg/mL (≈ 4.56 µM) | 6 µg/mL (≈ 13.7 µM) | 6 µg/mL (≈ 13.7 µM) | 
CCCCCCCCCCCCCCCc1cccc(OC)c1C(=O)Nc1ccc([N+](=O)[O-])cc1 [MAA-PNA] | > 20 µg/mL | > 20 µg/mL | > 10 µg/mL | > 10 µg/mL | > 10 µg/mL | > 10 µg/mL |  |  |  |  |  |  | 
CCCCCCCCCCCCCCCc1c(Br)ccc(O)c1C(=O)O [DBAA, 5-Bromo-6-pentadecyl-2-hydroxybenzoic acid] | > 20 µg/mL | > 20 µg/mL | > 10 µg/mL | > 10 µg/mL | 6 µg/mL (≈ 14 µM) | 6 µg/mL (≈ 14 µM) |  |  |  |  |  |  | 
CCCCCCCCCCCCCCCc1cccc(OC)c1C(=O)Nc1ccc(C(=O)O)cc1 [MAA-PABA] | > 20 µg/mL | > 20 µg/mL | > 10 µg/mL | > 10 µg/mL | 6 µg/mL (≈ 12.5 µM) | > 10 µg/mL |  |  |  |  |  |  | 
CCCCCCCCCCCCCCCc1c([N+](=O)[O-])cc([N+](=O)[O-])c(OC)c1C(=O)O [MDAA, 3,5-Dinitro-6-pentadecyl-2-Methoxybenzoic acid] | 2 µg/mL (≈ 4.42 µM) | 4 µg/mL (≈ 8.84 µM) | 6 µg/mL (≈ 13.3 µM) | 8 µg/mL (≈ 17.7 µM) | 0.5 µg/mL (≈ 1.1 µM) | 2 µg/mL (≈ 4.42 µM) |  |  |  |  |  |  | 
CCCCCCCCCCCCCCCc1cc([N+](=O)[O-])c([N+](=O)[O-])c(O)c1C(=O)O [NAA, 3,4-Dinitro-6-pentadecyl-2-hydroxybenzoic acid] |  |  |  |  |  |  | 10 µg/mL (≈ 22.8 µM) | 1 µg/mL (≈ 2.28 µM) | 7 to 8 µg/mL (≈ 16 to 18.2 µM) | 1 µg/mL (≈ 2.28 µM) | 7 µg/mL (≈ 16 µM) | 0.5 µg/mL (≈ 1.14 µM) | 
CCCCCCCCCCCCCCCc1cccc(OC)c1C(=O)NC(Cc1ccccc1)C(=O)O (centres unmarked) [MAA-F] | > 20 µg/mL | > 20 µg/mL | > 10 µg/mL | > 10 µg/mL | 6 µg/mL (≈ 11.8 µM) | > 10 µg/mL |  |  |  |  |  |  | 
CCCCCCCCCCCCCCCc1c(Br)ccc(OC)c1C(=O)O [MDBAA, 5Bromo-6-pentadecyl-2-methoxybenzoic acid] | 0.5 µg/mL (≈ 1.13 µM) | 4 µg/mL (≈ 9.06 µM) | 3 to 5 µg/mL (≈ 6.8 to 11.3 µM) | 5 µg/mL (≈ 11.3 µM) | 1 µg/mL (≈ 2.27 µM) | 3 µg/mL (≈ 6.8 µM) |  |  |  |  |  |  | 
CCCCCCCCCCCCCCCc1cccc(O)c1C(=O)O [AA, 6-pentadecyl salicylic acid, reference compound] | > 50 µg/mL | > 50 µg/mL | > 10 µg/mL | > 10 µg/mL | 0.5 µg/mL (≈ 1.43 µM) | 6 µg/mL (≈ 17.2 µM) |  |  |  |  |  |  | 1600 µg/mL (≈ 4590 µM)
C=CCC=CCC=CCCCCCCCc1cccc(O)c1C(=O)O [triene (C15:3)] |  |  |  |  |  |  |  |  |  |  |  |  | 6.5 µg/mL (≈ 19 µM)
